pIC50: −log10 of the molar value.
Assays:
RAW264.7 [1] = experiment: Anti-inflammatory activity in mouse RAW264.7 cells assessed as inhibition of lipopolysaccharide-induced nitric oxide production incubated for 24 hrs coincubated with LPS by Griess reagent based assay; assay type: functional, cell-based; settings: RAW264.7, 24 h
[2] = Cytotoxicity against mouse RAW264.7 cells assessed as reduction in cell viability by MTT assay; assay type: cell-based
[3] = target: T1, Phosphotyrosine protein phosphatase (Mycobacterium tuberculosis, UniProt A0A045ISB3); experiment: Inhibition of Mycobacterium tuberculosis H37Ra PTPB expressed in Escherichia coli BL21 (DE3) using p-nitrophenyl phosphate as substrate preincubated for 10 mins followed by substrate addition and measured for 5 mins by spectrophotometric analysis
T1 sequence (A0A045ISB3 whole entry): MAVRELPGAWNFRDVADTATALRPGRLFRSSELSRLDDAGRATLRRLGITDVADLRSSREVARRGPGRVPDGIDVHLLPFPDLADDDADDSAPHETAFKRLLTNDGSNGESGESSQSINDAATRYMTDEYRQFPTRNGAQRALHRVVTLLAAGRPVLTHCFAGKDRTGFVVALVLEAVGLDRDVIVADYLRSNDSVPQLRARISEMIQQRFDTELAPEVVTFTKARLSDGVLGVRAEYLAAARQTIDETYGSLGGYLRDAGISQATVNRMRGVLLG

RAW264.7 [4] = experiment: Anti-inflammatory activity in mouse RAW264.7 cells assessed as inhibition of lipopolysaccharide-induced nitric oxide production at 50 uM incubated for 24 hrs coincubated with LPS by Griess reagent based assay; assay type: functional; settings: RAW264.7, 24 h
[5] = target: T1, Phosphotyrosine protein phosphatase; experiment: Inhibition of Mycobacterium tuberculosis H37Ra PTPB using p-nitrophenyl phosphate as substrate

SMILES	pIC50 (RAW264.7 [1])	CC50 [2] [µM]	pIC50 [3]	inhibition at 50 µM (RAW264.7 [4]) [%]	pIC50 [5]
CC1=CC(=O)[C@H]2/C(C=O)=C\C[C@H]3[C@@H]([C@@H](C)/C=C\[C@H](O)C(C)(C)O)CC[C@]3(C)C[C@H]12	4.85	> 50	< 4.30		
CC(C)=C/C=C\[C@H](C)[C@H]1CC[C@]2(C)CC3=C(C(=O)C[C@H]3C)/C(CO)=C\C[C@@H]12	4.85	> 50	< 4.30		
CO[C@]12C[C@@](C)(O)[C@H]3C[C@@]4(C)CC[C@H]([C@@H](C)/C=C\C=C(C)C)/C4=C/C=C(/C(=O)N1)[C@@H]32	< 4.30	> 50	< 4.30		
CC(C)=C/C=C\[C@H](C)[C@H]1CC[C@]2(C)C[C@H]3[C@@H]4/C(=C\C[C@@H]12)C(=O)O[C@]4(O)C[C@@]3(C)O	< 4.30	> 50	4.44		
CC(C)=C/C=C\[C@H](C)[C@H]1CC[C@]2(C)C[C@@H]3C(C)=CC(=O)[C@H]3/C(C(=O)O)=C\C[C@@H]12	< 4.30	> 50	4.55		
CC(C)=C/C=C\[C@H](C)[C@H]1CC[C@]2(C)C[C@H]3[C@@H]4/C(=C\C[C@@H]12)CO[C@]4(O)C[C@@]3(C)O		18	< 4.30		
CC1=CC(=O)[C@H]2/C(C=O)=C\C[C@H]3[C@@H]([C@@H](C)/C=C\[C@@H]4OC4(C)C)CC[C@]3(C)C[C@H]12	4.62	> 50	4.46		
CC1=CC(=O)[C@H]2/C(C=O)=C\C[C@H]3[C@@H]([C@@H](C)/C=C\[C@@H](O)C(C)(C)O)CC[C@]3(C)C[C@H]12	< 4.30	> 50	< 4.30		
CC(C)=C/C=C\[C@H](C)[C@H]1CC[C@]2(C)C[C@H]3[C@H](C(=O)C[C@@]3(C)O)/C(C=O)=C\C[C@@H]12		4.8	< 4.30		
COc1ccc2c(c1)c(CC(=O)O)c(C)n2C(=O)c1ccc(Cl)cc1 [INDOMETHACIN]	4.42	> 50			
C[C@@H](/C=C\[C@H](O)C(C)(C)O)[C@H]1CC[C@]2(C)C[C@H]3[C@@H](C(=O)C[C@@]3(C)O)/C(C=O)=C\C[C@@H]12	4.80	> 50	< 4.30		
CC(C)=C/C=C\[C@H](C)[C@H]1CC[C@]2(C)C[C@H]3[C@H]4/C(=C\C[C@@H]12)C(=O)O[C@H]4C[C@@]3(C)O		29	< 4.30		
CC(C)=C/C=C\[C@H](C)[C@H]1CC[C@]2(C)C[C@H]3[C@@H](/C(C=O)=C\C[C@@H]12)[C@H](O)C[C@@]3(C)O	5.02	> 50	< 4.30		
CC1=CC(=O)[C@@H]2/C(C=O)=C\C[C@H]3[C@@H]([C@@H](C)/C=C\[C@H](O)C(C)(C)O)CC[C@]3(C)C[C@H]12	4.68	> 50	4.72		
CC(C)=C/C=C\[C@H](C)[C@H]1CC[C@]2(C)C[C@@H]3C(C)=CC(=O)[C@H]3/C(CO)=C\C[C@@H]12	4.60	> 50	4.43		
CC(C)=C/C=C\[C@H](C)[C@H]1CC[C@]2(C)C[C@@H]3C(C)=CC(=O)[C@H]3/C(C=O)=C\C[C@@H]12		3.8	< 4.30		
CC(C)=C/C=C\[C@H](C)[C@H]1CC[C@]2(C)C[C@@H]3C(C)=CC(=O)[C@@H]3/C(C=O)=C\C[C@@H]12		21	4.62		
CC1=CC(=O)[C@@H]2/C(C=O)=C\C[C@H]3[C@@H]([C@@H](C)/C=C\[C@@H](O)C(C)(C)O)CC[C@]3(C)C[C@H]12	< 4.30	> 50	< 4.30	< 40	
CC(C)=C/C=C\[C@H](C)[C@H]1CC[C@]2(C)C[C@H]3[C@@H]4/C(=C\C=C\12)C(=O)N[C@]4(O)C[C@@]3(C)O	< 4.30	> 50	4.41		
CC(C)=C/C=C\[C@H](C)[C@H]1CC[C@]2(C)C[C@H]3[C@H]4/C(=C\C[C@@H]12)CO[C@@]4(O)C[C@@]3(C)O		31	< 4.30		
CC(C)=C/C=C\[C@H](C)[C@H]1CC[C@]2(C)C[C@H]3[C@@H]4/C(=C\C=C\12)C(=O)N[C@@H]4C[C@@]3(C)O	< 4.30	> 50	< 4.30		
CC(C)[C@H]1CC[C@@]2(C)CC[C@]3(CO)CC4=C(C(=O)O)CC[C@H]4[C@]4(C)C[C@@H]4[C@H]3[C@H]12					5.66
CC(C)=C/C=C\[C@H](C)[C@H]1CC[C@]2(C)C[C@H]3[C@@H](C(=O)C[C@@]3(C)O)/C(C=O)=C\C[C@@H]12		15	< 4.30		
CC(C)=C/C=C\[C@H](C)[C@H]1CC[C@]2(C)C[C@@]3(O)[C@H](C)C[C@@H](O)[C@@H]3/C(C=O)=C\C[C@@H]12	< 4.30	> 50	< 4.30		
CO[C@]12C[C@@](C)(O)[C@H]3C[C@@]4(C)CC[C@H]([C@@H](C)/C=C\C=C(C)C)[C@@H]4C/C=C(/C(=O)N1)[C@@H]32	4.38	> 50	4.38		
